Data reported in patent US12059422B2 (MEI Pharma, Inc., priority 2011, dated 2024).

Experiments:
PI3K alpha = molecular target: T1, PI3K alpha (Homo sapiens, UniProt P42336); test: Luciferase-based luminescence assay (KinaseGlo), PI3K alpha enzymatic activity; type: biochemical; conditions: inhibition of enzymatic activity, 25 μM ATP, read-out: IC50 p110α
T1 construct: purchased Invitrogen Corp., Carlsbad, CA, USA
Outline: (§1)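 KinaseGlo luminescence measured ATP remaining after PIP2 (50 μM) phosphorylation with 25 μM ATP in HEPES pH 7.5 buffer with CHAPS and DTT. Final enzyme was 1.65 nM alpha (1 h reaction) or 6.86 nM delta (2 h reaction). IC50 was curve-fitted from 10 concentrations.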

PI3K delta = molecular target: T2, PI3K delta (Homo sapiens, UniProt O00329); test: Luciferase-based luminescence assay (KinaseGlo), PI3K delta enzymatic activity; type: biochemical; conditions: for IC50: inhibition of enzymatic activity, KinaseGlo, 25 μM ATP, read-out: IC50 p110δ; for α/δ ratio: ratio of enzymatic IC50 against PI3Kα over IC50 against PI3Kδ; for β/δ ratio / γ/δ ratio: ratio of enzymatic IC50 values, Table 1
T2 construct: purchased Millipore, Billerica, MA, USA
Outline: as §1

mTOR = mTOR (Homo sapiens, UniProt P42345); test: mTOR inhibition (Table 1); type: biochemical; conditions: Table 1, no method described
PI3Kδ = molecular target: T3, PI3Kδ (Homo sapiens, UniProt O00329); test: ELISA assay for PI3Kδ: sandwich ELISA, phosphorylation of AKT (Thr308) in Raji cells; type: cell-based; conditions: for IC50: cellular, pAKT (Thr308), Raji cells, anti-Human IgM stimulation, read-out: IC50 p110δ; for α/δ ratio / β/δ ratio / γ/δ ratio: ratio of cellular IC50 values, Table 2
T3 construct: endogenous in cells; host or cells: Raji (ATCC #CCL-86)
Outline: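 Raji cells, serum-starved 2 hrs, treated with compound (10 concentrations) for 2 hrs at 37° C, then stimulated 30 min with anti-human IgM. Lysates analysed by sandwich ELISA for pAKT Thr308 and total AKT with luminescent read-out. IC50 from curve fitting.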

T1 sequence (P42336 whole entry, species assumed): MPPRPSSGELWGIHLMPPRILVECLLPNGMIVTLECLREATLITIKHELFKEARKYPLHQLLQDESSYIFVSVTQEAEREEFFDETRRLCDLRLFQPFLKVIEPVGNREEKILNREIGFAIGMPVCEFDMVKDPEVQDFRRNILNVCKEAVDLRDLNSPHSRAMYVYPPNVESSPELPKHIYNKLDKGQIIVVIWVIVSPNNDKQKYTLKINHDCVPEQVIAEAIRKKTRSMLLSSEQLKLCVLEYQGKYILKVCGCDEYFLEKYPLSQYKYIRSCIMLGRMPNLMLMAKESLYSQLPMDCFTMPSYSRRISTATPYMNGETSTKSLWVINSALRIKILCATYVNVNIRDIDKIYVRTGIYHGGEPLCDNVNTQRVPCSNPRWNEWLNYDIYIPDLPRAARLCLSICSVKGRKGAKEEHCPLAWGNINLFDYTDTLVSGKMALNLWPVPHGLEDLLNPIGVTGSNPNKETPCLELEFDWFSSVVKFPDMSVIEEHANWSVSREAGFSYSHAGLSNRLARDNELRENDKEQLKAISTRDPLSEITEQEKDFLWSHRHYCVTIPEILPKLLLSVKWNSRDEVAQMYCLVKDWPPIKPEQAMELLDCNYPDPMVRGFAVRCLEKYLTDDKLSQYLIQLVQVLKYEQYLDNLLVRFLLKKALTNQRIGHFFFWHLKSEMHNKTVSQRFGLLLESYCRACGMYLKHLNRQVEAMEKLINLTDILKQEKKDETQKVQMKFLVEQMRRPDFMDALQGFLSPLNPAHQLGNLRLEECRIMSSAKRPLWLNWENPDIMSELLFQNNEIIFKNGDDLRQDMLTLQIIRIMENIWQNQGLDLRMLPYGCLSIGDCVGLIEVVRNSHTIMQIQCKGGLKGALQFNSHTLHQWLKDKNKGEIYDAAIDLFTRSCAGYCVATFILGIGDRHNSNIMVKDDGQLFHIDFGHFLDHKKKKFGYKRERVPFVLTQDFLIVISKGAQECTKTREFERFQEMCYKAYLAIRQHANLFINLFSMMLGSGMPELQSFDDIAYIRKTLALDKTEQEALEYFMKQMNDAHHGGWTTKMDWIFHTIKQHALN
T1 sequence (P27986 whole entry partner, species assumed): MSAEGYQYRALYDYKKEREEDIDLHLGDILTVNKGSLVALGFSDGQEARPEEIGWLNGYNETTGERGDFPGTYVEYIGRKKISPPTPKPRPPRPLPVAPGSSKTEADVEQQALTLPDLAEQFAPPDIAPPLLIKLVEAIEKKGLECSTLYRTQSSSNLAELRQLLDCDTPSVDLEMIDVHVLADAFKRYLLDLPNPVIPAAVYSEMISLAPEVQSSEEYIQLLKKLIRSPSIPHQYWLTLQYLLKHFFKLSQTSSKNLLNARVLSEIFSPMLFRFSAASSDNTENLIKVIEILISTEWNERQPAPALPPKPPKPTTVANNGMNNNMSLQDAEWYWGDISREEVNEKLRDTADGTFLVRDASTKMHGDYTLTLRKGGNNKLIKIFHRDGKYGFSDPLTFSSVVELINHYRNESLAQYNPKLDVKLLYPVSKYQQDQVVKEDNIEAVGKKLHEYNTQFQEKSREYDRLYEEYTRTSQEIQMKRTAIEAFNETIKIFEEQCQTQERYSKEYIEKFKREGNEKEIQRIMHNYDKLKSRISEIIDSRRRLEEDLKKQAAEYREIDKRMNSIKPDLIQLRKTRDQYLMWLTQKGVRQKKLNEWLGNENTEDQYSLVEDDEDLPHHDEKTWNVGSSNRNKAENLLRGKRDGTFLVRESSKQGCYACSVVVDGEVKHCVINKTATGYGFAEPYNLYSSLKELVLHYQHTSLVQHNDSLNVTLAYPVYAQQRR
T2 sequence (O00329 whole entry, species assumed): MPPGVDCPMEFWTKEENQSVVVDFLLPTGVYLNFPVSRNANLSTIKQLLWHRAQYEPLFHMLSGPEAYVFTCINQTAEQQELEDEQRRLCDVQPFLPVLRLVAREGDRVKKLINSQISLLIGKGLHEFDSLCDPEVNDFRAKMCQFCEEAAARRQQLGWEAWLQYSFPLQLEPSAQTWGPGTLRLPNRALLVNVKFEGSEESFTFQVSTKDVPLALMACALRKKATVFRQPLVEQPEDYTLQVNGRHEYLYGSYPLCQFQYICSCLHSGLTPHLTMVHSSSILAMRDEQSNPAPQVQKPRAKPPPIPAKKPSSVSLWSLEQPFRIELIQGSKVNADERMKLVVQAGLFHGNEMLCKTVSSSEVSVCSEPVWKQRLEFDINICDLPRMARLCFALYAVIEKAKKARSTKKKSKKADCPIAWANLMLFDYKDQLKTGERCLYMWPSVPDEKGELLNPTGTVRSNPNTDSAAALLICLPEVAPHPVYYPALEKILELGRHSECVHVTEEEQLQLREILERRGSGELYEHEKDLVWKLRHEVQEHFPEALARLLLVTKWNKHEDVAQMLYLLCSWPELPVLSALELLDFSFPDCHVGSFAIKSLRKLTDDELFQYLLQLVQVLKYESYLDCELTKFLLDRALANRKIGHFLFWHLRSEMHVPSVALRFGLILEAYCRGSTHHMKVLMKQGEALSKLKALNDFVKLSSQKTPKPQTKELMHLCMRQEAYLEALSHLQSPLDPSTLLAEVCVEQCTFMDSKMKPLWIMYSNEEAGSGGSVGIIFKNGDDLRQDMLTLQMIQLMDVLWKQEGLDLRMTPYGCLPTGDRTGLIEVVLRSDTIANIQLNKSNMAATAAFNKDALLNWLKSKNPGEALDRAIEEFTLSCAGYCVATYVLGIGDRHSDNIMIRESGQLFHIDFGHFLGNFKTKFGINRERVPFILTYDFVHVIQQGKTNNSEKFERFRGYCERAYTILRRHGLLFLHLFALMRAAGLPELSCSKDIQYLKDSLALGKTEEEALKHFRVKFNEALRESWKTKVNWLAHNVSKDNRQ
T2 sequence (P27986 whole entry partner, species assumed): as the sequence (P27986 whole entry partner, species assumed) above
T3 sequence (O00329 whole entry): as the sequence (O00329 whole entry, species assumed) above
T3 sequence (P27986 whole entry partner): as the sequence (P27986 whole entry partner, species assumed) above

SMILES | IC50 (PI3K alpha) [nM] | IC50 (PI3K delta) [nM] | α/δ ratio (PI3K delta) | β/δ ratio (PI3K delta) | γ/δ ratio (PI3K delta) | IC50 (mTOR) [nM] | IC50 (PI3Kδ) [nM] | α/δ ratio (PI3Kδ) | β/δ ratio (PI3Kδ) | γ/δ ratio (PI3Kδ)
Cc1cccc(CC(C)(C)Nc2nc(N3CCOCC3)nc(-n3c(C(F)F)nc4ccccc43)n2)c1 [Compound A49, 4-(2-(difluoromethyl)-1H-benzo[d]imidazol-1-yl)-N-(2-methyl-1-m-tolylpropan-2-yl)-6-morpholino-1,3,5-triazin-2-amine] | > 500 | ≤ 100 | A’ | D’ | C’ | > 500 | ≤ 100 | A’ | B’ | A’
CC(C)(Cc1ccccc1-c1cccnc1)Nc1nc(N2CCOCC2)nc(-n2c(C(F)F)nc3ccccc32)n1 [Compound A40, 4-(2-(difluoromethyl)-1H-benzo[d]imidazol-1-yl)-N-(2-methyl-1-(2-(pyridin-3-yl)phenyl)propan-2-yl)-6-morpholino-1,3,5-triazin-2-amine] | 200 to 500 | ≤ 100 | A’ | D’ | A’ | > 500 | ≤ 100 | A’ | A’ | A’
CC(C)(Cc1ccccc1-c1cncnc1)Nc1nc(N2CCOCC2)nc(-n2c(C(F)F)nc3ccccc32)n1 [Compound A63, 4-(2-(difluoromethyl)-1H-benzo[d]imidazol-1-yl)-N-(2-methyl-1-(2-(pyrimidin-5-yl)phenyl)propan-2-yl)-6-morpholino-1,3,5-triazin-2-amine] | 200 to 500 | ≤ 100 | A’ | A’ | A’ | > 500 | ≤ 100 | A’ | A’ | A’
Cc1cc(-c2ccccc2CC(C)(C)Nc2nc(N3CCOCC3)nc(-n3c(C(F)F)nc4ccccc43)n2)ccn1 [Compound A43, 4-(2-(difluoromethyl)-1H-benzo[d]imidazol-1-yl)-N-(2-methyl-1-(2-(2-methylpyridin-4-yl)phenyl)propan-2-yl)-6-morpholino-1,3,5-triazin-2-amine] | 200 to 500 | ≤ 100 | A’ | D’ | A’ | > 500 | ≤ 100 | A’ | A’ | A’
Cn1nccc1-c1ccccc1CC(C)(C)Nc1nc(N2CCOCC2)nc(-n2c(C(F)F)nc3ccccc32)n1 [Compound A46, 4-(2-(difluoromethyl)-1H-benzo[d]imidazol-1-yl)-N-(2-methyl-1-(2-(1-methyl-1H-pyrazol-5-yl)phenyl)propan-2-yl)-6-morpholino-1,3,5-triazin-2-amine] | 200 to 500 | ≤ 100 | A’ | D’ | A’ | > 500 | ≤ 100 | A’ | B’ | A’
CC(C)(Cc1ccccc1-c1cn[nH]c1)Nc1nc(N2CCOCC2)nc(-n2c(C(F)F)nc3ccccc32)n1 [Compound A44, 4-(2-(difluoromethyl)-1H-benzo[d]imidazol-1-yl)-N-(1-(2-(1H-pyrazol-4-yl)phenyl)-2-methylpropan-2-yl)-6-morpholino-1,3,5-triazin-2-amine] | 200 to 500 | ≤ 100 | A’ | D’ | A’ | > 500 | ≤ 100 | A’ | A’ | A’
COc1cc(-c2ccccc2CC(C)(C)Nc2nc(N3CCOCC3)nc(-n3c(C(F)F)nc4ccccc43)n2)ccn1 [Compound A41, 4-(2-(difluoromethyl)-1H-benzo[d]imidazol-1-yl)-N-(1-(2-(2-methoxypyridin-4-yl)phenyl)-2-methylpropan-2-yl)-6-morpholino-1,3,5-triazin-2-amine] | > 500 | ≤ 100 | A’ | A’ | A’ | > 500 | ≤ 100 | A’ | A’ | A’
CC(C)(Cc1ccccc1-c1ccccc1F)Nc1nc(N2CCOCC2)nc(-n2c(C(F)F)nc3ccccc32)n1 [Compound A59, 4-(2-(difluoromethyl)-1H-benzo[d]imidazol-1-yl)-N-(1-(2′-fluorobiphenyl-2-yl)-2-methylpropan-2-yl)-6-morpholino-1,3,5-triazin-2-amine] | > 500 | ≤ 100 | A’ | A’ | A’ | > 500 | ≤ 100 | A’ | A’ | A’
CC(=O)N1CCC(c2ccccc2CC(C)(C)Nc2nc(N3CCOCC3)nc(-n3c(C(F)F)nc4ccccc43)n2)CC1 [Compound A72, 4-(2-(difluoromethyl)-1H-benzo[d]imidazol-1-yl)-N-(2-methyl-1-(2-(1-acetylpiperidin-4-yl)phenyl)propan-2-yl)-6-morpholino-1,3,5-triazin-2-amine] | 100 to 200 | ≤ 100 | A’ | D’ | C’ | > 500 | ≤ 100 | A’ | A’ | A’
COc1ccc(-c2ccccc2CC(C)(C)Nc2nc(N3CCOCC3)nc(-n3c(C(F)F)nc4ccccc43)n2)cc1 [Compound A67, 4-(2-(difluoromethyl)-1H-benzo[d]imidazol-1-yl)-N-(1-(4′-methoxybiphenyl-2-yl)-2-methylpropan-2-yl)-6-morpholino-1,3,5-triazin-2-amine] | > 500 | ≤ 100 | A’ | B’ | A’ | > 500 | ≤ 100 | A’ | A’ | A’
